According to ChEMBL document CHEMBL1201862, “PubChem BioAssay data set” (2004):
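Assay format: 96-well plates, 48-hour exposure. GI50 = concentration required for 50% inhibition of growth.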 The source made the active and inactive calls. Cut-off read from the data, not from the text of the source: active = GI50 up to about 1.1 µM and inactive = higher.

What was measured:
Experiment in all cases: DTP human tumour cell line panel, 48 h
SK-MEL-5 = system: SK-MEL-5
786-0 = system: 786-0
SK-MEL-28 = system: SK-MEL-28
DU-145 = system: DU-145
COLO 205 = system: COLO 205
SW-620 = system: SW-620
ACHN = system: ACHN
SNB-75 = system: SNB-75
HT-29 = system: HT-29
SN12C = system: SN12C
PC-3 = system: PC-3
HCT-15 = system: HCT-15
OVCAR-5 = system: OVCAR-5
Hs-578T = system: Hs-578T
HCT-116 = system: HCT-116
EKVX = system: EKVX
SR = system: SR
RPMI-8226 = system: RPMI-8226
MDA-N = system: MDA-N

CC(NCCN(C)C)C1CCC2C3CCc4cc(O)ccc4C3CCC12C (stereo unspecified)
GI50 (SK-MEL-5): 1.71 µM (inactive) | GI50 (786-0): 1.83 µM (inactive) | GI50 (SK-MEL-28): 2.19 µM (inactive) | GI50 (DU-145): 6.18 µM (inactive) | GI50 (COLO 205): 1.84 µM (inactive) | GI50 (SW-620): 3.33 µM (inactive) | GI50 (ACHN): 2 µM (inactive) | GI50 (SNB-75): 3.14 µM (inactive) | GI50 (HT-29): 2.89 µM (inactive) | GI50 (SN12C): 2 µM (inactive) | GI50 (PC-3): 2.82 µM (inactive) | GI50 (HCT-15): 2.79 µM | GI50 (OVCAR-5): 5.42 µM (inactive) | GI50 (Hs-578T): 4.17 µM (inactive) | GI50 (HCT-116): 2.66 µM (inactive) | GI50 (EKVX): 5.19 µM (inactive) | GI50 (SR): 1.44 µM (inactive) | GI50 (RPMI-8226): 2.34 µM (inactive)

CCOC(=O)N/N=C(/OCC)c1ccccc1
GI50 (SK-MEL-5): > 100 µM (inactive) | GI50 (786-0): > 100 µM (inactive) | GI50 (SK-MEL-28): > 100 µM (inactive) | GI50 (DU-145): > 100 µM (inactive) | GI50 (COLO 205): > 100 µM (inactive) | GI50 (SW-620): > 100 µM (inactive) | GI50 (ACHN): > 100 µM (inactive) | GI50 (HT-29): > 100 µM (inactive) | GI50 (SN12C): > 100 µM (inactive) | GI50 (HCT-15): > 100 µM | GI50 (OVCAR-5): > 100 µM (inactive) | GI50 (Hs-578T): > 100 µM (inactive) | GI50 (HCT-116): > 100 µM (inactive) | GI50 (MDA-N): > 100 µM (inactive) | GI50 (EKVX): > 100 µM (inactive) | GI50 (SR): > 100 µM (inactive) | GI50 (RPMI-8226): > 100 µM (inactive)

OCC(O)COCn1cc(Cn2ncc3c(O)ncnc32)nn1 (stereo unspecified)
GI50 (SK-MEL-5): > 100 µM (inactive) | GI50 (786-0): > 100 µM (inactive) | GI50 (SK-MEL-28): > 100 µM (inactive) | GI50 (DU-145): > 100 µM (inactive) | GI50 (COLO 205): > 100 µM (inactive) | GI50 (SW-620): > 100 µM (inactive) | GI50 (ACHN): > 100 µM (inactive) | GI50 (HT-29): > 100 µM (inactive) | GI50 (SN12C): > 100 µM (inactive) | GI50 (PC-3): > 100 µM (inactive) | GI50 (HCT-15): > 100 µM | GI50 (OVCAR-5): > 100 µM (inactive) | GI50 (HCT-116): > 100 µM (inactive) | GI50 (MDA-N): > 100 µM (inactive) | GI50 (EKVX): > 100 µM (inactive) | GI50 (SR): > 100 µM (inactive) | GI50 (RPMI-8226): > 100 µM (inactive)

C=C(COC(C)=O)CC(OC(C)=O)c1ccccc1 (stereo unspecified)
GI50 (SK-MEL-5): > 100 µM (inactive) | GI50 (786-0): > 100 µM (inactive) | GI50 (SK-MEL-28): > 100 µM (inactive) | GI50 (COLO 205): > 100 µM (inactive) | GI50 (SW-620): > 100 µM (inactive) | GI50 (ACHN): > 100 µM (inactive) | GI50 (SNB-75): > 100 µM (inactive) | GI50 (HT-29): > 100 µM (inactive) | GI50 (SN12C): > 100 µM (inactive) | GI50 (HCT-15): > 100 µM | GI50 (OVCAR-5): > 100 µM (inactive) | GI50 (HCT-116): > 100 µM (inactive) | GI50 (EKVX): > 100 µM (inactive) | GI50 (RPMI-8226): > 100 µM (inactive)

COc1cc(C2c3cc4c(cc3OC(NN)C2C)OCO4)cc(OC)c1O (stereo unspecified)
GI50 (SK-MEL-5): 4.13 µM (inactive) | GI50 (786-0): 11.3 µM (inactive) | GI50 (SK-MEL-28): 6.75 µM (inactive) | GI50 (DU-145): 15.3 µM (inactive) | GI50 (COLO 205): 15.2 µM (inactive) | GI50 (SW-620): 4.73 µM (inactive) | GI50 (SNB-75): 4.28 µM (inactive) | GI50 (HT-29): 6.22 µM (inactive) | GI50 (SN12C): 4.3 µM (inactive) | GI50 (PC-3): 10.4 µM (inactive) | GI50 (HCT-15): 3.72 µM | GI50 (OVCAR-5): 31.6 µM (inactive) | GI50 (HCT-116): 4.63 µM (inactive) | GI50 (MDA-N): 1.84 µM (inactive) | GI50 (RPMI-8226): 3.95 µM (inactive)

COc1cc(C2C3=C(CCCC3=O)N(c3ccc(C)cc3)C3=C2C(=O)CCC3)c([N+](=O)[O-])cc1OC
GI50 (SK-MEL-5): 64.6 µM (inactive) | GI50 (786-0): 63.1 µM (inactive) | GI50 (SK-MEL-28): 87.3 µM (inactive) | GI50 (SW-620): > 100 µM (inactive) | GI50 (ACHN): 65.3 µM (inactive) | GI50 (SNB-75): 24.4 µM (inactive) | GI50 (HT-29): 59.4 µM (inactive) | GI50 (SN12C): > 100 µM (inactive) | GI50 (PC-3): > 100 µM (inactive) | GI50 (HCT-15): 68.1 µM | GI50 (OVCAR-5): > 100 µM (inactive) | GI50 (Hs-578T): 75.9 µM (inactive) | GI50 (EKVX): > 100 µM (inactive) | GI50 (SR): 54.2 µM (inactive) | GI50 (RPMI-8226): 57.3 µM (inactive)

COc1ccc(/C=C/C(=O)CCN2CCN(CCC(=O)/C=C/c3ccc(OC)cc3)CC2)cc1
GI50 (SK-MEL-5): 18.1 µM (inactive) | GI50 (786-0): 3.4 µM (inactive) | GI50 (SK-MEL-28): 13.6 µM (inactive) | GI50 (DU-145): 26.2 µM (inactive) | GI50 (COLO 205): 2.01 µM (inactive) | GI50 (SW-620): 4.1 µM (inactive) | GI50 (ACHN): 14.2 µM (inactive) | GI50 (SNB-75): 19.1 µM (inactive) | GI50 (HT-29): 10.4 µM (inactive) | GI50 (SN12C): 12.6 µM (inactive) | GI50 (PC-3): 12.9 µM (inactive) | GI50 (HCT-15): 8.53 µM | GI50 (OVCAR-5): 17.9 µM (inactive) | GI50 (Hs-578T): 20 µM (inactive) | GI50 (HCT-116): 3.29 µM (inactive) | GI50 (MDA-N): 2.54 µM (inactive) | GI50 (EKVX): 14.5 µM (inactive)

CC1=CC(=O)/C(=C(/C)NCCN(CCN/C(C)=C2\C(=O)C=C(C)OC2=O)CCN/C(C)=C2\C(=O)C=C(C)OC2=O)C(=O)O1
GI50 (SK-MEL-5): > 100 µM (inactive) | GI50 (786-0): > 100 µM (inactive) | GI50 (SK-MEL-28): > 100 µM (inactive) | GI50 (COLO 205): > 100 µM (inactive) | GI50 (SW-620): > 100 µM (inactive) | GI50 (ACHN): > 100 µM (inactive) | GI50 (SNB-75): > 100 µM (inactive) | GI50 (HT-29): > 100 µM (inactive) | GI50 (SN12C): > 100 µM (inactive) | GI50 (PC-3): > 100 µM (inactive) | GI50 (HCT-15): > 100 µM | GI50 (OVCAR-5): > 100 µM (inactive) | GI50 (Hs-578T): > 100 µM (inactive) | GI50 (HCT-116): > 100 µM (inactive) | GI50 (MDA-N): > 100 µM (inactive) | GI50 (EKVX): > 100 µM (inactive) | GI50 (SR): > 100 µM (inactive) | GI50 (RPMI-8226): > 100 µM (inactive)
